Laboratory results: paper PMC10025480 (Frontiers in Pharmacology, 2023)
Read-outs that look alike come from different tables or passages of the source.

Experiments:
[1] = set-up: method as in Papp et al., 2019; conditions: PAH patients; ref Papp et al., 2019; cited from earlier work
[2] = tested on: human vascular smooth muscle preparations; conditions: ref Papp et al., 2019; cited from earlier work
[3] = tested on: panel of 22 functional GPCR assays; test: SelectScreen cell-based GPCR assay panel; conditions: 10 µM
Text: Profiling of compound activity versus a select panel of diverse GPCRs was undertaken by ThermoFisher Scientific (United Kingdom) via their SelectScreen cell-based GPCR assay panel. Detailed experimental protocols on this assay platform can be found at (https://www.thermofisher.com/content/dam/LifeTech/migration/en/filelibrary/services/discovery-research/pdfs.par.36410.file.dat/sscg-brochure.pdf). Briefly these assays detect agonist or antagonist activity using cell lines with the GPCR of interest over-expressed, driving the expression of a reporter gene encompassing a mammalian-optimized Beta-lactamase. Test compounds are incubated with the specific cell lines at the defined final concentration for 5 or 16 h (depending on the cell line specifics) before quantification of effect.

hTMEM16Aabc = biological target: T1, hTMEM16Aabc (Homo sapiens, UniProt Q5XXA6, DEL476-501); test: Whole-cell patch clamp (QPatch), FRT-hTMEM16Aabc cells; format: cell-based; conditions: for IC50: [Ca2+]i clamped at 415 nM
T1 construct: expressed in transfected cells
T1 sequence (Q5XXA6 with tags, fused parts or gaps isoform Q5XXA6-5 DEL539-564): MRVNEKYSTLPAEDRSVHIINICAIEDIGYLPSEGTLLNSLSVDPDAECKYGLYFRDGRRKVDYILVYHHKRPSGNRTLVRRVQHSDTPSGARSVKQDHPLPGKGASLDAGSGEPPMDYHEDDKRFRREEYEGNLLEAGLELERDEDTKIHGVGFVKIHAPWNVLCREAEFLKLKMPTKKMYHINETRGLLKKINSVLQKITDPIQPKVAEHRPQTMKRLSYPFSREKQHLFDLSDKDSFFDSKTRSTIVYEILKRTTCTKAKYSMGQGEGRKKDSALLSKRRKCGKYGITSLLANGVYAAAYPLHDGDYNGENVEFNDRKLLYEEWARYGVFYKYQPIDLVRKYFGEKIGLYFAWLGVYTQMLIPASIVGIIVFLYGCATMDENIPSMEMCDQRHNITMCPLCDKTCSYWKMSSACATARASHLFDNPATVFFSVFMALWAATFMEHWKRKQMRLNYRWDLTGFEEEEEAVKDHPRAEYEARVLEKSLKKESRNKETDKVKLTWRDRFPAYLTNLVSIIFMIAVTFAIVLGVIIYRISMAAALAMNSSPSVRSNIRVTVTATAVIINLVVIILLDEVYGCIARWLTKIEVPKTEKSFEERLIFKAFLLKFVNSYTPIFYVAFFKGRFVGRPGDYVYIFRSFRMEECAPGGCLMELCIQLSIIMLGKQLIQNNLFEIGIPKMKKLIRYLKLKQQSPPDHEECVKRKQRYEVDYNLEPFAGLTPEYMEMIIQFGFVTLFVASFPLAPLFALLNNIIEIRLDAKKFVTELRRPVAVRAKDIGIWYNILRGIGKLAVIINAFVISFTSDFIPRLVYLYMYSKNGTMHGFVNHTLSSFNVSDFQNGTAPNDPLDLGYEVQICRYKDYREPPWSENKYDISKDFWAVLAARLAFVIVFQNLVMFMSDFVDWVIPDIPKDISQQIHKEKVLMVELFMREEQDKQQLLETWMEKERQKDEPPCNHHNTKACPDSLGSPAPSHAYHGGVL
Procedure: (§1) Current rectification ratios were calculated by dividing the magnitude of the outward current at +90 mV by the magnitude of the inward current at −90 mV.

HEK293 cells = test: Whole-cell patch clamp (QPatch), parental HEK cells lacking TMEM16A; format: cell-based; conditions: compared with HEK-TMEM16Aacd cells at 0 nM [Ca2+]i
Procedure: as §1

[4] = tested on: human bronchial smooth muscle; conditions: cited from earlier work
hTMEM16Aacd = biological target: T2, hTMEM16Aacd (Homo sapiens, UniProt Q5XXA6); test: Whole-cell patch clamp (QPatch), HEK-hTMEM16Aacd cells; format: cell-based
T2 construct: expressed in transfected cells; host or cells: HEK cells
T2 sequence (Q5XXA6 1-986): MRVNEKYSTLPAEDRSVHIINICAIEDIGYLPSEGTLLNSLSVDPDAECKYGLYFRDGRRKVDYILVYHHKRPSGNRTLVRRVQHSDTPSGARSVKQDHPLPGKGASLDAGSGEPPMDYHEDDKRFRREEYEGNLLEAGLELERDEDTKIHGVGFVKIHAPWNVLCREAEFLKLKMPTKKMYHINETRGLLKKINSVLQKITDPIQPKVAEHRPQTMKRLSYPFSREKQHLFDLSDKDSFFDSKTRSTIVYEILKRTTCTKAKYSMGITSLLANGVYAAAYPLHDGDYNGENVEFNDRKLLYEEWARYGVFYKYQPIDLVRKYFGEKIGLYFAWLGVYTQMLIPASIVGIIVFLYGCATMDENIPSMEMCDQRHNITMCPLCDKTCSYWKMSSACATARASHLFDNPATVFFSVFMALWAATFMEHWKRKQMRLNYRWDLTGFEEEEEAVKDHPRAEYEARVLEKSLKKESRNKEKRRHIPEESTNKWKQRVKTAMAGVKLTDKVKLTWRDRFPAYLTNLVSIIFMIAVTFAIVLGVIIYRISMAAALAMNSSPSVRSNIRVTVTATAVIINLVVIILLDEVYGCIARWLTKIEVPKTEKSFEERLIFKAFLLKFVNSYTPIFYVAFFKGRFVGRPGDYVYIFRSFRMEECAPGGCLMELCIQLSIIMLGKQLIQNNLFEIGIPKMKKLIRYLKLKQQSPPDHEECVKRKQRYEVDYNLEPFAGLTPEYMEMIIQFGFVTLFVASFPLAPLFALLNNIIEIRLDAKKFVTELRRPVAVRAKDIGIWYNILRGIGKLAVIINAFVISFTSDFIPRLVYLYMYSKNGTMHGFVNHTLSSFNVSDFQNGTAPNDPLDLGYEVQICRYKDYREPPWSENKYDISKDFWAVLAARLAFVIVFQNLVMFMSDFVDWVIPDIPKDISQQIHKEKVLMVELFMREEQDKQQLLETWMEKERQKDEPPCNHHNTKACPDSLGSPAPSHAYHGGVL
Procedure: Whole-cell voltage-clamp recordings from FRT-hTMEM16Aabc, HEK-hTMEM16Aacd, and HEK293 cells were made using the QPatch planar patch clamp system as described previously ([Bill et al., 2015]; [Danahay et al, 2020a]). TMEM16A currents were assessed using chloride selective solutions with calculated free [Ca^2+]i tightly buffered at either 415 or 0 nM. Current rectification ratios were calculated by dividing the magnitude of the outward current at +90 mV by the magnitude of the inward current at −90 mV.

| Compound | pulmonary artery pressure [1] | effect on vascular smooth muscle in vitro [2] | number of GPCRs inhibited by ≥ 50% [3] | IC50 (hTMEM16Aabc; IC50 (printed in Figure 1, concentration-response curves), hTMEM16Aabc currents in FRT cells) [µM] | IC50 (hTMEM16Aabc; IC50, inhibition of TMEM16Aabc currents, assessed at +90 mV, FRT cells) [µM] | IC50 (hTMEM16Aabc; at −90 mV, FRT cells, read-out: IC50, inhibition of TMEM16Aabc currents) [µM] | inhibition at 30 µM (hTMEM16Aabc; highest concentration tested, 30 µM, [Ca2+]i 415 nM, read-out: inhibition of TMEM16Aabc current) [%] | effect on currents in parental HEK cell line (HEK293 cells) | relaxation of human bronchial smooth muscle ([4]; ref Danahay et al., 2020b) | effect on freshly isolated human bronchial smooth muscle ([4]; ref Miner et al., 2019) | effect on TMEM16Aacd currents (hTMEM16Aacd; HEK cells, [Ca2+]i clamped at 415 nM, bell shaped concentration response) | EC50 (hTMEM16Aacd; HEK-TMEM16Aacd cells, [Ca2+]i clamped to 0 nM (TMEM16A not activated), read-out: EC50, concentration-dependent increase in current) [µM] | reversal potential of induced current (hTMEM16Aacd; [Ca2+]i clamped to 0 nM) | current reversal potential (hTMEM16Aabc; 30 µM, vehicle −12.3 ± 2.0 mV) [mV] | effect on TMEM16Aabc currents (hTMEM16Aabc; bell-shaped response, [Ca2+]i 415 nM) |
| --- | --- | --- | --- | --- | --- | --- | --- | --- | --- | --- | --- | --- | --- | --- | --- |
| CCc1oc2ccccc2c1C(=O)c1cc(Br)c(O)c(Br)c1 [benzbromarone] | paradoxical increase | relax | 6 | 3.05 ± 0.586 | 3 ± 0.6 | 1.3 ± 0.3 | 96 | – | – | – | – | – | – | – | – |
| O=C(Nc1ccc([N+](=O)[O-])cc1Cl)c1cc(Cl)ccc1O [niclosamide] | – | – | 11 | – | – | – | – | Quantitatively similar effects | confirmed | relax | enhancement of currents at low µM | 2.7 ± 0.3 | approximately −50 mV | −29.8 ± 1.3 | potentiation of currents at concentrations up to 1.1 µM |
